Test results taken from patent US8673578B2, “Methods of identifying antagonists of the hTAS2R46 bitter taste receptor” (Deutsches Institut für Ernahrungsforschung Potsdam-Rehbrücke, priority 2009, dated 2014).

Assays:
Assay type in all cases: cell-based
[1] = target: T1, hTAS2R10 (Homo sapiens, UniProt Q9NYW0); assay: calcium imaging (FLIPR), activation of hTAS2R-transfected HEK293T-Gα16gust44 cells; settings: for calcium response of hTAS2R10-transfected cells: 100 μM test substance, bath application
T1 construct: expressed in transfected cells; host or cells: HEK293T cells stably expressing chimeric Gα16gust44, transient transfection
T1 sequence (Q9NYW0 1-307): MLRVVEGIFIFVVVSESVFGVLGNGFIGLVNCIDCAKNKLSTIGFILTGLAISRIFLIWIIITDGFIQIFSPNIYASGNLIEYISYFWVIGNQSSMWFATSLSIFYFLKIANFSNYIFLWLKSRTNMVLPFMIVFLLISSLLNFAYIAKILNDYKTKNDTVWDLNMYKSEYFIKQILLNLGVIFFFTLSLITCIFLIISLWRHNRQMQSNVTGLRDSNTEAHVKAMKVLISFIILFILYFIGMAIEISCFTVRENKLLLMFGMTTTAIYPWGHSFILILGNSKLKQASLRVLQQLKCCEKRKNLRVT
Source text: (§1) Human TAS2R cDNAs were cloned into pcDNA5/FRT (Invitrogen, San Diego, Calif.). For adequate plasma membrane targeting, receptor cDNA was fused to the aminoterminal sequence of the rat somatostatin type 3 receptor at the aminoterminus of the recombinant protein (Bufe, B., T. Hofmann, et al. (2002) Nat Genet. 32(3): 397-401). For immunological detection, the Herpes simplex Glycoprotein D epitope was supplemented at the carboxyterminus of the recombinant protein (Bufe et al., supra). Receptor constructs were transiently transfected into HEK293T cells stably expressing the chimeric G protein subunit Gα16gust44 (Ueda, T., S. Ugawa, et al. (2003) J Neurosci 23(19): 7376-80) using Lipofectamine 2000 (Invitrogen, San Diego, Calif.) in 96-well plates.
(§2) Calcium Imaging experiments were performed 24 h after transfection using a Fluorometric Imaging Plate Reader (FLIPR, Molecular Devices, Munich, Germany) as previously described (Bufe et al., supra). Taste active compounds were ordered from Sigma (Sigma-Aldrich, Taufkirchen, Germany). Absinthin, 3β hydroxy dihydro costunolide and 3β hydroxy pelenolide were kindly provided by Giovanni Appendino (Novara, Italy). Test substances were directly dissolved in C1 buffer (130 mM NaCl, 10 mM Na-Hepes, 10 mM Glucose, 5 mM KCl, 2 mM CaCl2, pH 7.4) or in DMSO, respectively. DMSO stocks were further diluted in C1 buffer not exceeding a final DMSO concentration of 1% on the cells. For the investigation of antagonistic effects, test substances were premixed. Agonists were applied at concentrations corresponding to EC90, except where indicated otherwise (Table 2). Data were collected from 3 independent experiments performed in quadruplicates and processed with SigmaPlot (SPSS, Chicago, Ill.). Fluorescence signals after application of test substances were corrected for and normalized to background fluorescence (ΔF/F═(F−F0)/F0), and baseline noise was subtracted. Calculation of dose-response curves was done by nonlinear regression using the function f(y)=((a−d)/(1+(x/EC50)^nH)+d).
(§3) In a first series of experiments we tested the two sesquiterpene lactones 3β hydroxy dihydro costunolide (formula (I) in FIG. 1) and 3β hydroxy pelenolide (formula (II) in FIG. 1) for their ability to activate hTAS2 receptor-expressing HEK293T cells.
(§4) Signal amplitudes were comparatively small (FIG. 2C).

[2] = target: T2, hTAS2R14 (Homo sapiens, UniProt Q9NYV8); assay: as above; settings: 100 μM test substance, bath application
T2 construct: expressed in transfected cells; host or cells: HEK293T cells stably expressing chimeric Gα16gust44, transient transfection
T2 sequence (Q9NYV8 1-317): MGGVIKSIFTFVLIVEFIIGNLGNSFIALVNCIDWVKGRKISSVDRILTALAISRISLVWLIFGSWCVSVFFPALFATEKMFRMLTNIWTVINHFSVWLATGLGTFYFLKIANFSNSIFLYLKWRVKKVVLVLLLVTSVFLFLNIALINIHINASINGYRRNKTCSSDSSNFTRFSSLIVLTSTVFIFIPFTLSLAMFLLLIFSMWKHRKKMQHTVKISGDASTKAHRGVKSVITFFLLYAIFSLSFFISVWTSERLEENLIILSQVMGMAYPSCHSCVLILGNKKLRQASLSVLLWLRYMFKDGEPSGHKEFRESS
Source text: as §1, §2, §3, §4

[3] = target: T3, hTAS2R5 (Homo sapiens, UniProt Q9NYW4); assay: calcium imaging (FLIPR), effect on agonist-dependent hTAS2R activation; settings: 100 μM test substance; agonist denatonium saccharide 3000 μM; agonist alone = 100%
T3 construct: expressed in transfected cells; host or cells: HEK293T cells stably expressing chimeric Gα16gust44, transient transfection
T3 sequence (Q9NYW4 1-299): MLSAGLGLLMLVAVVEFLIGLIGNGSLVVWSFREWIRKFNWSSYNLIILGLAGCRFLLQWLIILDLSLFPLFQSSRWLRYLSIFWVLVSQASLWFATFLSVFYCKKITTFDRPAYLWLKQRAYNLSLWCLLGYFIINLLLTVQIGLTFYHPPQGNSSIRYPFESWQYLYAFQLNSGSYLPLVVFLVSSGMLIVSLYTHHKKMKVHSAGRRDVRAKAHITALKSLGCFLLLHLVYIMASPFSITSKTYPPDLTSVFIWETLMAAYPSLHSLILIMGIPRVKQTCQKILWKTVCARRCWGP
Source text: as §1, §2
(§5) To test 3β hydroxy dihydro costunolide and 3β hydroxy pelenolide for antagonistic or enhancing effects on hTAS2R activation, transfected cells were stimulated with cognate agonist bitter substances at EC90 concentrations (Table 2) without 3β hydroxy dihydro costunolide and 3β hydroxy pelenolide. The cellular responses after application of the agonist alone were set to 100%, responses obtained after coapplication of agonists and 100 μM 3β hydroxy dihydro costunolide or 100 μM 3β hydroxy pelenolide are shown relative to this value (FIG. 4).

[4] = target: T4, hTAS2R7 (Homo sapiens, UniProt Q9NYW3); assay: as above; settings: 100 μM test substance; agonist quinine sulfate 10 μM; agonist alone = 100%
T4 construct: expressed in transfected cells; host or cells: HEK293T cells stably expressing chimeric Gα16gust44, transient transfection
T4 sequence (Q9NYW3 1-318): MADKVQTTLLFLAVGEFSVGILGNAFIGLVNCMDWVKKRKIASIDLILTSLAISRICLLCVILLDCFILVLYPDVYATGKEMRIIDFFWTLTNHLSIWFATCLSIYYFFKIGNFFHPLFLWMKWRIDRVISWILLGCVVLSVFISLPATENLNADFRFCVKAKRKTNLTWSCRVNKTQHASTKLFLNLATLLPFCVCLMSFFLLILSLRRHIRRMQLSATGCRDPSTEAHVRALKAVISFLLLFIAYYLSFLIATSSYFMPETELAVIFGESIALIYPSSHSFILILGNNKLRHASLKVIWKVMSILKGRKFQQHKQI
Source text: as §1, §2, §5

[5] = target: T5, hTAS2R44 (Homo sapiens, UniProt P59538, L162M); assay: as above; settings: 100 μM test substance; agonist aristolochic acids 3 μM (EC90); agonist alone = 100%
T5 construct: expressed in transfected cells; host or cells: HEK293T cells stably expressing chimeric Gα16gust44, transient transfection
T5 sequence (P59538 1-309 L162M): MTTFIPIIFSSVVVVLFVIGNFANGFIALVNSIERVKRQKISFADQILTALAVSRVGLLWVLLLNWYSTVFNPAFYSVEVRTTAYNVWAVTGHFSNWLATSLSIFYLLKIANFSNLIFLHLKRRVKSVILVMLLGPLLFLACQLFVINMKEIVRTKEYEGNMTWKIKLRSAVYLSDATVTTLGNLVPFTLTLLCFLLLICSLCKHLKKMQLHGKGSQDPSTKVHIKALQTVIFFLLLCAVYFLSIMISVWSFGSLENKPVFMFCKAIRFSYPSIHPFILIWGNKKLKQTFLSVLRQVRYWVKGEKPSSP
Source text: as §1, §2, §5

| SMILES | calcium response of hTAS2R10-transfected cells [1] | EC50 ([1]; concentration-response, intracellular calcium) [µM] | calcium response of hTAS2R14-transfected cells [2] | agonist-dependent response of hTAS2R5-expressing cells on coapplication [3] | agonist-dependent response of hTAS2R7-expressing cells on coapplication [4] | agonist-dependent response of hTAS2R44-expressing cells on coapplication [5] |
| --- | --- | --- | --- | --- | --- | --- |
| C/C1=C\C[C@H](O)/C(C)=C/[C@H]2OC(=O)[C@@H](C)C2CC1 (stereo partly drawn) [3β hydroxy dihydro costunolide] | responded | 25.2 ± 3.6 | responded | increased responses | increased responses |  |
| C/C1=C\C[C@H](O)[C@@H](C)C[C@H]2OC(=O)[C@@H](C)[C@@H]2CC1 [3β hydroxy pelenolide] | displayed calcium signals |  | displayed calcium signals |  |  | moderately attenuating effect |
